This is an account of results in patent US20150087673A1, “METHODS FOR USING AND BIOMARKERS FOR AMPK-ACTIVATING COMPOUNDS” (RIGEL PHARMACEUTICALS, INC., priority 2013, published 2015).

pEC50: −log10 of the molar value.

The experiment relates to AMPK. Nature of the experiment: AMPK activation assay (enzyme-linked immunosorbent assay). The experiment is classed as cell-based. Summed up:
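Activation by each compound is measured using a conventional commercial immunoassay kit.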

`CS(=O)(=O)c1ccc(OC2CCN(C(=O)c3ccc(C(=O)N[C@@H]4CCN(Cc5ccc(OC(F)(F)F)cc5)C[C@H]4F)nc3)CC2)cc1` (relative stereo) [Compound 255, N-((trans)-3-fluoro-1-(4-(trifluoromethoxy)benzyl)piperidin-4-yl)-5-(4-(4-(methylsulfonyl)phenoxy)piperidine-1-carbonyl)picolinamide] gave a pEC50 greater than 6.30.

Compound `O=C(Nc1ccc(Oc2ccc(F)cc2)nc1)c1ccc(C(=O)N2CCC(C(=O)c3ccc(N4CCCC4)cc3)CC2)nc1` [Compound 382, N-(6-(4-fluorophenoxy)pyridin-3-yl)-6-(4-(4-(pyrrolidin-1-yl)benzoyl)piperidine-1-carbonyl)nicotinamide] had a pEC50 greater than 6.30.

`CC(=O)c1ccc(Oc2ccc(NC(=O)c3ccc(C(=O)N4CCC(C(=O)c5ccc(F)cc5F)CC4)nc3)cn2)cc1` [Compound 464, N-(6-(4-acetylphenoxy)pyridin-3-yl)-6-(4-(2,4-difluorobenzoyl)piperidine-1-carbonyl)nicotinamide] gave a pEC50 greater than 6.30.

In turn, `N#Cc1ccc(CN2CCC(NC(=O)c3ccc(NC4CCN(c5ccc(C#N)cc5)CC4)cn3)CC2)cc1` [Compound 267, N-(1-(4-cyanobenzyl)piperidin-4-yl)-5-(1-(4-cyanophenyl)piperidin-4-ylamino)picolinamide] had a pEC50 greater than 6.30.

Turning to `COc1ccc(CN2CCC(NC(=O)c3ccc(C(=O)N4CCN(Cc5ccc(F)cc5)CC4)nc3)CC2)cc1` [Compound 327, 6-(4-(4-fluorobenzyl)piperazine-1-carbonyl)-N-(1-(4-methoxybenzyl)piperidin-4-yl) nicotinamide], the negative logarithm of the EC50 (pEC50) was greater than 6.30.

For the compound `O=C(Nc1ccccc1)c1ccc(C(=O)N2CCN(Cc3ccc(F)cc3)CC2)cn1` [Compound 107, 5-(4-(4-fluorobenzyl)piperazine-1-carbonyl)-N-phenylpicolinamide], the pEC50 is 5.00 to 5.30.

Compound `N#Cc1ccc(OC2CCN(C(=O)c3ccc(C(=O)N[C@H]4CC[C@@H](Oc5ccc(C(F)(F)F)cc5)CC4)nc3)CC2)cc1` [Compound 193, 5-(4-(4-cyanophenoxy)piperidine-1-carbonyl)-N-((cis)-4-(4-(trifluoromethyl)phenoxy)cyclohexyl) picolinamide] gave a pEC50 greater than 6.30.

Consider `N#Cc1ccc(-c2ccc(Nc3ccc(C(=O)NC4CCN(Cc5ccccc5)CC4)nc3)cc2)cc1` [Compound 119, N-(1-benzylpiperidin-4-yl)-5-(4′-cyanobiphenyl-4-ylamino)picolinamide], for which the pEC50 is 5.30 to 6.00.

For the compound `O=C(Nc1ccc(Oc2ccc(F)cc2)nc1)c1ccc(C(=O)N2CCC(C(=O)c3ccc(F)cc3F)CC2)nc1` [Compound 348, 6-(4-(2,4-difluorobenzoyl)piperidine-1-carbonyl)-N-(6-(4-fluorophenoxy)pyridin-3-yl)nicotinamide], the pEC50 is greater than 6.30.

For `COc1ccc(C(=O)C2CCN(C(=O)c3ccc(C(=O)N(C)C4CCN(Cc5ccc(OC(F)(F)F)cc5)CC4)cn3)CC2)cc1` [Compound 483, 6-(4-(4-methoxybenzoyl)piperidine-1-carbonyl)-N-methyl-N-(1-(4-(trifluoromethoxy)benzyl)piperidin-4-yl)nicotinamide], the pEC50 was greater than 6.30.

With `O=C(NC1CCN(Cc2ccccc2)CC1)c1ccc(C(=O)N2CCN(Cc3ccccc3)CC2)nc1` [Compound 74, 6-(4-benzylpiperazine-1-carbonyl)-N-(1-benzylpiperidin-4-yl)nicotinamide], the pEC50 was greater than 6.30.

`O=C(NC1CCN(Cc2ccccc2)CC1)c1ccc(C(=O)NC2CCN(Cc3ccccc3)CC2)nc1` [Compound 264, N2,N5-bis(1-benzylpiperidin-4-yl)pyridine-2,5-dicarboxamide] gave a pEC50 of 5.00 to 5.30.

Consider `N#Cc1ccc(Oc2ccc(NC(=O)c3ccc(C(=O)N4CCN(Cc5ccc(F)cc5)CC4)cn3)cc2)cc1` [Compound 59, N-(4-(4-cyanophenoxy)phenyl)-5-(4-(4-fluorobenzyl)piperazine-1-carbonyl)picolinamide], for which the pEC50 is greater than 6.30.

With `COc1ccc(OC2CCN(C(=O)c3ccc(C(=O)N[C@H]4CC[C@H](Oc5ccc(C#N)cc5)CC4)nc3)CC2)cc1` [Compound 172, N-((trans)-4-(4-cyanophenoxy)cyclohexyl)-5-(4-(4-methoxyphenoxy)piperidine-1-carbonyl)picolinamide], the pEC50 was greater than 6.30.

Turning to `O=C(NC1CCN(Cc2ccc(F)cc2)CC1)c1ccc(C(=O)N2CCC(Oc3ccc(F)cc3)CC2)cn1` [Compound 180, N-(1-(4-fluorobenzyl)piperidin-4-yl)-5-(4-(4-fluorophenoxy)piperidine-1-carbonyl)picolinamide], the pEC50 was greater than 6.30.

For `N#Cc1ccc(CN2CCc3ccc(NC(=O)c4ccc(C(=O)N5CCN(Cc6ccc(F)cc6)CC5)cn4)cc3C2)cc1` [Compound 132, N-(2-(4-cyanobenzyl)-1,2,3,4-tetrahydroisoquinolin-7-yl)-5-(4-(4-fluorobenzyl)piperazine-1-carbonyl)picolinamide], the pEC50 was greater than 6.30.

On to `N#Cc1ccc(CN2CCC(NC(=O)c3ccc(C(=O)N4CCC(C(=O)c5ccc(F)c(F)c5)CC4)cn3)CC2)cc1` [Compound 281, N-(1-(4-cyanobenzyl)piperidin-4-yl)-5-(4-(3,4-difluorobenzoyl)piperidine-1-carbonyl)picolinamide], for which the pEC50 is greater than 6.30.

Take `N#Cc1ccc(Oc2ccc(NC(=O)c3ccc(C(=O)N4CCN(Cc5ccc(F)cc5)CC4)nc3)cn2)cc1` [Compound 476, N-(6-(4-cyanophenoxy)pyridin-3-yl)-6-(4-(4-fluorobenzyl)piperazine-1-carbonyl)nicotinamide]: the pEC50 is greater than 6.30.

As to `O=C(c1ccc(-c2ccc(OCc3ccccc3)cc2)nc1)N1CCN(Cc2ccc(F)cc2)CC1` [Compound 17, (4-(4-fluorobenzyl)piperazin-1-yl)(6-(4-(benzyloxy)phenyl)pyridin-3-yl)methanone], the pEC50 was less than 5.00.

`N#Cc1ccc(CN2CC[C@H](NC(=O)c3ccc(C(=O)N4CCN(Cc5ccc(F)cc5)CC4)cn3)C2)cc1` [Compound 123, (S)-N-(1-(4-cyanobenzyl)pyrrolidin-3-yl)-5-(4-(4-fluorobenzyl)piperazine-1-carbonyl)picolinamide] gave a pEC50 greater than 6.30.

In turn, `Cc1nc(Oc2ccc(C#N)cc2)ccc1NC(=O)c1ccc(C(=O)N2CCC(C(=O)c3ccc(F)cc3F)CC2)nc1` [Compound 479, N-(6-(4-cyanophenoxy)-2-methylpyridin-3-yl)-6-(4-(2,4-difluorobenzoyl)piperidine-1-carbonyl)nicotinamide] had a pEC50 greater than 6.30.

Take `N#Cc1ccc(CN2CCC(NC(=O)c3ccc(C(=O)N4CCCCC4Cc4ccc(F)cc4)cn3)CC2)cc1` (stereo not drawn) [Compound 153, N-(1-(4-cyanobenzyl)piperidin-4-yl)-5-(2-(4-fluorobenzyl)piperidine-1-carbonyl)picolinamide]: the pEC50 was 5.30 to 6.00.

In the case of `COc1ccc(C(=O)C2CCN(C(=O)c3cnc(C(=O)NC4CCN(Cc5ccc(C#N)cc5)CC4)cn3)CC2)cc1` [Compound 211, N-(1-(4-cyanobenzyl)piperidin-4-yl)-5-(4-(4-methoxybenzoyl)piperidine-1-carbonyl)pyrazine-2-carboxamide], the pEC50 is greater than 6.30.

On to `N#Cc1ccc(CN2CCC(NC(=O)c3ccc(C(=O)NCCOc4ccc(F)cc4)cn3)CC2)cc1` [Compound 149, N2-(1-(4-cyanobenzyl)piperidin-4-yl)-N5-(2-(4-fluorophenoxy)ethyl)pyridine-2,5-dicarboxamide], for which the pEC50 was 6.00 to 6.30.

The compound `N#Cc1ccc(CN2CCC(NC(=O)c3ccc(C(=O)N4CCC(Oc5ccc(C#N)cc5)CC4)nn3)CC2)cc1` [Compound 388, N-(1-(4-cyanobenzyl)piperidin-4-yl)-6-(4-(4-cyanophenoxy)piperidine-1-carbonyl)pyridazine-3-carboxamide] showed a pEC50 greater than 6.30.

On to `COc1ccc(C(=O)C2CCN(C(=O)c3ccc(C(=O)Nc4ccc(Oc5ccc(C#N)cc5)cn4)cn3)CC2)cc1` [Compound 468, N-(5-(4-cyanophenoxy)pyridin-2-yl)-6-(4-(4-methoxybenzoyl)piperidine-1-carbonyl)nicotinamide], for which the pEC50 is greater than 6.30.

Turning to `COc1ccc(CN2CCC(NC(=O)c3ccc(C(=O)N4CCC(C(=O)c5ccc(S(C)(=O)=O)cc5)CC4)cn3)CC2)cc1` [Compound 234, N-(1-(4-methoxybenzyl)piperidin-4-yl)-5-(4-(4-(methylsulfonyl)benzoyl)piperidine-1-carbonyl)picolinamide], the pEC50 is greater than 6.30.

In turn, `CCOC(=O)c1ccc(OC2CCN(C(=O)c3ccc(C(=O)NC4CCN(Cc5ccc(C#N)cc5)CC4)nc3)CC2)cc1` [Compound 284, ethyl 4-(1-(6-(1-(4-cyanobenzyl)piperidin-4-ylcarbamoyl)nicotinoyl)piperidin-4-yloxy)benzoate] had a pEC50 greater than 6.30.

The compound `CS(=O)(=O)c1ccc(OC2CCN(C(=O)c3ccc(C(=O)NC4CCN(Cc5cccc(OC(F)(F)F)c5)CC4)cn3)CC2)cc1` [Compound 239, 6-(4-(4-(methylsulfonyl)phenoxy)piperidine-1-carbonyl)-N-(1-(3-(trifluoromethoxy)benzyl)piperidin-4-yl)nicotinamide] showed a pEC50 of 5.30 to 6.00.

Regarding `O=C(c1ccc(C(=O)N2CCN(Cc3ccccc3)CC2)nc1)N1CCN(Cc2ccccc2)CC1` [Compound 73, pyridine-2,5-diylbis((4-benzylpiperazin-1-yl)methanone)], the pEC50 is 5.00 to 5.30.

Compound `COc1ccc(C(=O)C2CCN(C(=O)c3ccc(C(=O)N[C@H]4CC[C@@H](Oc5ccc(F)cc5)CC4)cn3)CC2)cc1` [Compound 316, N-((cis)-4-(4-fluorophenoxy)cyclohexyl)-6-(4-(4-methoxybenzoyl)piperidine-1-carbonyl)nicotinamide] gave a pEC50 greater than 6.30.

`COc1ccc(CN2CCC(NC(=O)c3ccc(C(=O)N4CCC(Oc5ccc(S(F)(F)(F)(F)F)cc5)CC4)nc3)CC2)cc1` [Compound 495, N-(1-(4-methoxybenzyl)piperidin-4-yl)-6-(4-(4-(pentafluorosulfanyl)phenoxy)piperidine-1-carbonyl)nicotinamide] had a pEC50 greater than 6.30.

In turn, `CC(=O)c1ccc(Oc2ccc(NC(=O)c3ccc(C(=O)N4CCN(c5ccc(S(C)(=O)=O)cc5)CC4)nc3)cn2)cc1` [Compound 487, N-(6-(4-acetylphenoxy)pyridin-3-yl)-6-(4-(4-(methylsulfonyl)phenyl)piperazine-1-carbonyl)nicotinamide] had a pEC50 of 5.30 to 6.00.
